Assay results: US6414017B2, “Inhibition of hair growth” (The Gillette Company, priority 1993, dated 2002)

Test system: hair growth of flank organs
Test: hamster flank organ hair mass assay (reduction of hair growth)
Assay type: in vivo, Male intact Golden Syrian hamsters
Settings: for reducing hair growth (result in words): vehicle and test not given
Procedure: These organs produce hair in response to androgens in the hamster. To evaluate the effectiveness of a particular inhibitor in reducing hair growth, the flank organs of each of a group of hamsters are depilated by applying a thioglycolate based chemical depilatory (Surgex). To one organ of each animal 10 μl. of vehicle alone once a day is applied, while to the other organ of each animal an equal amount of vehicle containing the inhibitor is applied. After thirteen applications (one application per day for five days a week), the flank organs are shaved and the amount of recovered hair (hair mass) from each is weighed. […] Some preferred inhibitors were tested according to the above procedure.

[1] = Table 3: 5% in Vehicle A, pH 7.5
[2] = Table 3: 10% in Vehicle A, pH 7.5
[3] = Table 3: 10% in Vehicle F, pH 5.5
[4] = Table 3: 15% in Vehicle A, pH 7.5
[5] = Table 3: 20% in Vehicle A, pH 8.0
[6] = Table 3: 20% in Vehicle B, pH 7.0
[7] = Table 3: 20% in Vehicle F, pH 5.5

Structure (SMILES): Cc1c(C)c2c(c(C)c1O)CCC(C)(CCCC(C)CCCC(C)CCCC(C)C)O2 (racemic) [dl-α-tocopherol]
- reducing hair growth (result in words): effective in reducing hair growth

Structure (SMILES): O=c1c(O)c(-c2ccc(O)c(O)c2)oc2cc(O)cc(O)c12 [Quercetin, 3,3′,4′,5,7-pentahydroxy flavone]
- Hair Mass Treated (Dose 5%, Vehicle G, pH 6.0, thirteen applications): 1.100 ± .10 mg
- Percent Inhibition (Dose 5%, Vehicle G, pH 6.0, vs vehicle treated side): 27 ± 6%
- Hair Mass Treated (Dose 10%, Vehicle E, pH 5.5, thirteen applications): 0.419 ± .07 mg
- Percent Inhibition (Dose 10%, Vehicle E, pH 5.5, vs vehicle treated side): 83 ± 4%
- reducing hair growth (result in words): effective in reducing hair growth

Structure (SMILES): COc1ccc2cc(CCC(C)=O)ccc2c1 [Nabumetone, 4-[6-methoxy-2-naphthyl]-2-butanone]
- Hair Mass Treated (Dose 15%, Vehicle E, pH 6.0, thirteen applications): 1.267 ± .23 mg
- Percent Inhibition (Dose 15%, Vehicle E, pH 6.0, vs vehicle treated side): 23.23%

Structure (SMILES): O=C(O)C=Cc1ccc(O)c(O)c1 [Caffeic acid, 3,4-dihydroxycinnamic acid]
- Hair Mass Treated (Dose 15%, Vehicle H, pH 4.0, thirteen applications): 0.797 ± .13 mg
- Percent Inhibition (Dose 15%, Vehicle H, pH 4.0, vs vehicle treated side): 62 ± 7%
- reducing hair growth (result in words): effective in reducing hair growth

Structure (SMILES): CC(C(=O)O)c1ccc2c(c1)[nH]c1ccc(Cl)cc12 (stereo not drawn) [Carprofen, 6-chloro-α-methylcarbazole-2-acetic acid]
- Hair Mass Treated (Dose 20%, Vehicle C, pH 6.0, thirteen applications): 0.776 ± .11 mg
- Percent Inhibition (Dose 20%, Vehicle C, pH 6.0, vs vehicle treated side): 29.69%

Structure (SMILES): Cc1cccc(Nc2ccccc2C(=O)O)c1C [Mefenamic acid, 2-[(2,3-dimethylphenyl)amino]benzoic acid]
- Hair Mass Treated (Dose 10%, Vehicle A, pH 8.8, thirteen applications): 0.518 ± .13 mg
- Percent Inhibition (Dose 10%, Vehicle A, pH 8.8, vs vehicle treated side): 67.18%

Structure (SMILES): O=c1cc(-c2ccc(O)cc2)oc2cc(O)cc(O)c12 [apigenin, 4′,5,7-trihydroxy flavone]
- reducing hair growth (result in words): effective in reducing hair growth

Structure (SMILES): CN1C(C(=O)Nc2ccccn2)=C(O)c2sccc2S1(=O)=O [Tenoxican, 4-hydroxy-2-methyl-N-2-pyridinyl-2H-thieno[2,3-e]-1,2-thiazine-3-carboxamide-1,1-dioxide]
- Hair Mass Treated (Dose 15%, Vehicle B, pH 8.0, thirteen applications): 0.326 ± .08 mg
- Percent Inhibition (Dose 15%, Vehicle B, pH 8.0, vs vehicle treated side): 85.38%

Structure (SMILES): CC(Cc1ccc(O)c(O)c1)C(C)Cc1ccc(O)c(O)c1 (stereo not drawn) [NDGA, nordihydroguaiaretic acid]
- Hair Mass Treated (Dose 10%, Vehicle B, pH 6.5, thirteen applications): 0.450 ± .11 mg
- Percent Inhibition (Dose 10%, Vehicle B, pH 6.5, vs vehicle treated side): 81 ± 4%
- reducing hair growth (result in words): effective in reducing hair growth

Structure (SMILES): COc1ccc2c(c1)c(CC(=O)O)c(C)n2C(=O)c1ccc(Cl)cc1 [Indomethacin, 1-[p-chlorobenzoyl]-5-methoxy-2-methylindole-3-acetic acid]
- Hair Mass Treated [1]: 1.248 ± .20 mg
- Percent Inhibition [1]: 43.41 ± 7.75%
- Hair Mass Treated [2]: 1.084 ± .11 mg
- Percent Inhibition [2]: 53.32 ± 4.17%
- Hair Mass Treated [3]: 0.679 ± .08 mg
- Percent Inhibition [3]: 49.89 ± 5.54%
- Hair Mass Treated [4]: 0.768 ± .10 mg
- Percent Inhibition [4]: 68.77 ± 3.02%
- Hair Mass Treated [5]: 0.307 ± .08 mg
- Percent Inhibition [5]: 83.78 ± 3.66%
- Hair Mass Treated [6]: 0.261 ± .01 mg
- Percent Inhibition [6]: 83.37 ± 1.46%
- Hair Mass Treated [7]: 0.324 ± .08 mg
- Percent Inhibition [7]: 78.43 ± 4.39%

Structure (SMILES): CCCOC(=O)c1cc(O)c(O)c(O)c1 [Propyl gallate, propyl gallate]
- reducing hair growth (result in words): effective in reducing hair growth
